Here are results for one molecule from PMC7614683, “A small molecule PI3Kα activator for cardioprotection and neuroregeneration” (Nature, 2023).

Where two headings read alike, the source gives them in different places.

Common to all, as to assay: SelectScreen Z-LYTE kinase activity assay (SI Table 6)
What all share (format): biochemical

Assay [1] concerns the target T1, protein kinases of the Z-LYTE panel (Homo sapiens, UniProt P54762).
T1 sequence (P54762 18-984): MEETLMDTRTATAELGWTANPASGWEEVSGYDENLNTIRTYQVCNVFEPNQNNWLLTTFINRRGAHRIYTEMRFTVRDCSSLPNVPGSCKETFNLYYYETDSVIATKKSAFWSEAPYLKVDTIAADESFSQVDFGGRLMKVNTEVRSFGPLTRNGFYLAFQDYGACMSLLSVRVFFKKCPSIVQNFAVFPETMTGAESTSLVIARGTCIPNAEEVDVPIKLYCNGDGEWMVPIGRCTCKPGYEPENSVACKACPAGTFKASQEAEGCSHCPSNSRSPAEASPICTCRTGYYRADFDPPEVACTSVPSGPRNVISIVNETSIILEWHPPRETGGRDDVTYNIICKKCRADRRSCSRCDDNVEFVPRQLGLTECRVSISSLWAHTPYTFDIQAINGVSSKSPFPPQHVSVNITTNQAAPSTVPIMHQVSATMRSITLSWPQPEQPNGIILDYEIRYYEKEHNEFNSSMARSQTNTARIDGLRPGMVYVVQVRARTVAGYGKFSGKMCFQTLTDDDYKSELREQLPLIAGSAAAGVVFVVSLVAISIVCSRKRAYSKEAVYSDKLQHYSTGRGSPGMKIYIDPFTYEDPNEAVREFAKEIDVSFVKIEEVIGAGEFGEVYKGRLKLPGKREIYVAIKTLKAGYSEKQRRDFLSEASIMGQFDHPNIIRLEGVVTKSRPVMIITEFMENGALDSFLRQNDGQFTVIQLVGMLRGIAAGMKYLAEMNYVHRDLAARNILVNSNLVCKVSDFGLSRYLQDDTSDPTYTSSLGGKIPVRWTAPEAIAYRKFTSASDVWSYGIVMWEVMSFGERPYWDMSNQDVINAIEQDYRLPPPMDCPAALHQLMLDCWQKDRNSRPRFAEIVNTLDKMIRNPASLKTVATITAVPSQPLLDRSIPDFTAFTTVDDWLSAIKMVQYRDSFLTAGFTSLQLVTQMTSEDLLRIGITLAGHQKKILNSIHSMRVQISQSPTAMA
In outline: (§1)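 Kinases in the SelectScreen panel (Adapta, LanthaScreen binding, Z-LYTE formats) were tested against compound at 1 μM. Separately, ATM (100 nM, 5 μM GST-p53, 1 mM ATP, 30 min, 30°C) and mTORC1 (50 nM, 15 μM 4E-BP1, 250 μM ATP, 3 h) were run with 200 μM compound. Those products were read on Phos-tag gels.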

Assay [2] has as its target protein kinases of the Z-LYTE panel (Homo sapiens, UniProt Q13177). In outline: as §1
Assay [3] has as its target protein kinases of the Z-LYTE panel (Homo sapiens, UniProt O60674). In outline: as §1
Assay [4] addresses protein kinases of the Z-LYTE panel (Homo sapiens, UniProt P31749). In outline: as §1
The target of assay [5] is T2, protein kinases of the Z-LYTE panel (Homo sapiens, UniProt Q9UHD2).
T2 sequence (Q9UHD2 1-729): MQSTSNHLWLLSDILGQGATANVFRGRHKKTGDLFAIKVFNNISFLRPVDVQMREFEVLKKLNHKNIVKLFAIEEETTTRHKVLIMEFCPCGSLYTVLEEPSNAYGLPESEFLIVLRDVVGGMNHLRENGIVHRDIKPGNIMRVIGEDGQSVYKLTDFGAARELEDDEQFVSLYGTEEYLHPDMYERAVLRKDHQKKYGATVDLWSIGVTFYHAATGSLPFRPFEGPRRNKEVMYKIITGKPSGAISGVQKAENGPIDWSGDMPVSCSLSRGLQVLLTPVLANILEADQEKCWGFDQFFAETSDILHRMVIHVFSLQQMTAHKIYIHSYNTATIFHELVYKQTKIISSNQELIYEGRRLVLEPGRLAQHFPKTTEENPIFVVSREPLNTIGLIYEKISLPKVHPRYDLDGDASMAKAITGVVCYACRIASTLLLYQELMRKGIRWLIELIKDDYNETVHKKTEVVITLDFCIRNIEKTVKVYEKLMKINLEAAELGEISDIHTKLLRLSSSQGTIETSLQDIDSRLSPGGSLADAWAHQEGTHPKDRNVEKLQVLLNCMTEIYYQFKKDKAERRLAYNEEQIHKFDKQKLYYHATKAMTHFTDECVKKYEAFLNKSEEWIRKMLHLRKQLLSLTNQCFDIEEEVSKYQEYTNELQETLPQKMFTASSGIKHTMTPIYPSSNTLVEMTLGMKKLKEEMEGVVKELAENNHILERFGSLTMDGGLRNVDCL
In outline:
as §1

Sequence of protein kinases of the Z-LYTE panel (Homo sapiens, UniProt P31749) (P31749 whole entry): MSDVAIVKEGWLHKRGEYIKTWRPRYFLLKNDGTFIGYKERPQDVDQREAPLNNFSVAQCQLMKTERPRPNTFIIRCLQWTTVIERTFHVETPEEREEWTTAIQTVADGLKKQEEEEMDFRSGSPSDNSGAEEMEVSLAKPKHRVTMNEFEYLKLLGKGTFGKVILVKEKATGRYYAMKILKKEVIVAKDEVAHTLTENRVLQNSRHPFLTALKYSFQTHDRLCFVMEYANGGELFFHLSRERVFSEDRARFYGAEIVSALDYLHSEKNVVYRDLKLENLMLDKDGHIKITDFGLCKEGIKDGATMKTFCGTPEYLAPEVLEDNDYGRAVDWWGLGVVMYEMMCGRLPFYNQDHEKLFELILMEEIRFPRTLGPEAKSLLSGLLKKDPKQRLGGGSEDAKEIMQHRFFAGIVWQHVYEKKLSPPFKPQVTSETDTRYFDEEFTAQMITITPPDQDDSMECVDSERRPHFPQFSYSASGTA
Sequence of protein kinases of the Z-LYTE panel (Homo sapiens, UniProt Q13177) (Q13177 whole entry): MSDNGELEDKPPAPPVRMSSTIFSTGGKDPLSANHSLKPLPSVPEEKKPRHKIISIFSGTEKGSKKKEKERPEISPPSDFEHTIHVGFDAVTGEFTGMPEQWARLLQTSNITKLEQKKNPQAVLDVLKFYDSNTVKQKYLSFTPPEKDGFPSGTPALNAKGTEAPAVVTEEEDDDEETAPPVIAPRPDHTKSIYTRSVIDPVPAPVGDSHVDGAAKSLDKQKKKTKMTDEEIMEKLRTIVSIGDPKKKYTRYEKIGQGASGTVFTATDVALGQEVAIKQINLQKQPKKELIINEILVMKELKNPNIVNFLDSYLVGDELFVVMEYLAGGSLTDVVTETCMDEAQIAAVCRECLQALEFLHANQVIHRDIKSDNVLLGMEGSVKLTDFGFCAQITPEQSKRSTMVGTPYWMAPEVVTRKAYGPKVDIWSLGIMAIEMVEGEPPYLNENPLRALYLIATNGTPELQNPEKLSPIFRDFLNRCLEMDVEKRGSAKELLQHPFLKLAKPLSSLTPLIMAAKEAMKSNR
Sequence of protein kinases of the Z-LYTE panel (Homo sapiens, UniProt O60674) (O60674 whole entry): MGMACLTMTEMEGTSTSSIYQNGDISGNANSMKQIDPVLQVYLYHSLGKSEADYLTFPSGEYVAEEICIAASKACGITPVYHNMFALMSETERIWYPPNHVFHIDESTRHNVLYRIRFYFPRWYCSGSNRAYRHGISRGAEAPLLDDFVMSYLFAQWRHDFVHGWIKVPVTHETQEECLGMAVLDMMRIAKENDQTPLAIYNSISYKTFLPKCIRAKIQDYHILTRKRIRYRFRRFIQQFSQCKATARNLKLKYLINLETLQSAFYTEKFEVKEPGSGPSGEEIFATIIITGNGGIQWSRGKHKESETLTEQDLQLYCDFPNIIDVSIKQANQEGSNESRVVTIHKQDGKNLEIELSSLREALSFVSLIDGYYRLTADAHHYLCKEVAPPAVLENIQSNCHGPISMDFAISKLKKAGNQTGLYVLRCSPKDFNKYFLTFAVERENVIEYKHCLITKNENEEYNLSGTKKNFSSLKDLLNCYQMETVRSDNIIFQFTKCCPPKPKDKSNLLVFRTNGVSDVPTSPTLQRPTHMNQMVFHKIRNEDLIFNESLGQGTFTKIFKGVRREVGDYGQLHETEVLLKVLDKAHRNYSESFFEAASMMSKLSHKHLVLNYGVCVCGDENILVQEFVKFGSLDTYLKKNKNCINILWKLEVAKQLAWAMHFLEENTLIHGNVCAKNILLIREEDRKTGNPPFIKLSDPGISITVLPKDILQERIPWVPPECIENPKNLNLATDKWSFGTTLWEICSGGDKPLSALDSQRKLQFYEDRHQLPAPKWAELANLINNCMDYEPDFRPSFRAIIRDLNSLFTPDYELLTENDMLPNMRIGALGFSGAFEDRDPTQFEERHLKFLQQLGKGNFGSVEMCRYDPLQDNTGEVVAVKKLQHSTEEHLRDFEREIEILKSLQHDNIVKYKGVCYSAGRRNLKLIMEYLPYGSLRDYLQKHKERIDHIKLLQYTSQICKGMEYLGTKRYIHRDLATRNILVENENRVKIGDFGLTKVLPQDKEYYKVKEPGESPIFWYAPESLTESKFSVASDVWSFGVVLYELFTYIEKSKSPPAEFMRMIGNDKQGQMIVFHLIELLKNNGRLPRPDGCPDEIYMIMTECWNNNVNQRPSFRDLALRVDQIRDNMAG

For the molecule `CCN1CCN(c2ccc(Nc3cc(Nc4cccc5c4N(C(C)=O)CC5)ccn3)cc2)CC1` [Compound 1938], the inhibition at 1 µM in assay [1] (read-out: % Inhibition Point 1) amounted to 11%; in assay [1] (read-out: % Inhibition Point 2), 11%; in assay [1] (read-out: % Inhibition mean), 11%; in assay [2] (read-out: % Inhibition Point 1) it was 5%; in assay [2] (read-out: % Inhibition Point 2) it was 4.68%; in assay [2] (read-out: % Inhibition mean), 5%. Besides, the inhibition at 1 µM was 6.6% in assay [3] (read-out: % Inhibition Point 1); 9% in assay [3] (read-out: % Inhibition Point 2); 8% in assay [3] (read-out: % Inhibition mean); 4.32% in assay [4] (read-out: % Inhibition Point 1); 3.3% in assay [4] (read-out: % Inhibition Point 2); 4% in assay [4] (read-out: % Inhibition mean). Also, the inhibition at 1 µM in assay [5] (read-out: % Inhibition Point 1) stood at 4%; in assay [5] (read-out: % Inhibition Point 2), 7.54%; in assay [5] (read-out: % Inhibition mean), 6%.

The term inhibition denotes the share of the control response that was lost under treatment.
